Assay results as given in patent publication US20120178915A1, “PYRIMIDINE DERIVATIVES AND ANALOGS, PREPARATION METHOD AND USE THEREOF” (priority 2009, published 2012).
In brackets after ≈: the same amount, converted by molar mass. Read-outs that look alike come from different tables or passages of the source.

Tests used:
[1] = system: Enterococcus faecalis 19433; test: microbe, parasite or virus in culture; assay type: cell-based; settings: 37° C., 24 h, read-out: Minimum Inhibitory Concentration, MIC
[2] = system: Staphylococcus aureus 703 (MRSA); test: microbe, parasite or virus in culture; assay type: cell-based; settings: 24 h, read-out: Minimum Inhibitory Concentration, MIC
[3] = system: Bacillus subtilis 82; test: microbe, parasite or virus in culture; assay type: cell-based; settings: 37° C., 24 h, read-out: Minimum Inhibitory Concentration, MIC
[4] = MIC broth microdilution; assay type: cell-based; settings: Microorganism 33, Dermatophytosis; 37° C., 24 h; read-out: Minimum Inhibitory Concentration, MIC
[5] = system: Oral candidiasis; test: MIC broth microdilution; assay type: cell-based; settings: Microorganism 32, Oral candidiasis; 37° C., 24 h; read-out: Minimum Inhibitory Concentration, MIC
[6] = system: Enterococcus faecalis 51299; test: microbe, parasite or virus in culture; assay type: cell-based; settings: Enterococcus faecalis, 51299, 24 h, read-out: Minimum Inhibitory Concentration, MIC
[7] = system: Bacillus cereus 246; test: microbe, parasite or virus in culture; assay type: cell-based; settings: 37° C., 24 h, read-out: Minimum Inhibitory Concentration, MIC
[8] = system: Streptococcus pneumoniae 6303 (PRSP); test: microbe, parasite or virus in culture; assay type: cell-based; settings: 24 h, read-out: Minimum Inhibitory Concentration, MIC
[9] = system: Enterococcus fecal F631 (VRE); test: organism not typed; assay type: cell-based; settings: 24 h, read-out: Minimum Inhibitory Concentration, MIC
[10] = system: Enterococcus faecalis 29212; test: microbe, parasite or virus in culture; assay type: cell-based; settings: 37° C., 24 h, read-out: Minimum Inhibitory Concentration, MIC
[11] = system: Streptococcus agalactiae B; test: microbe, parasite or virus in culture; assay type: cell-based; settings: 37° C., 24 h, read-out: Minimum Inhibitory Concentration, MIC
[12] = system: Streptococcus 10342; test: MIC broth microdilution; assay type: cell-based; settings: 37° C., 24 h, read-out: Minimum Inhibitory Concentration, MIC
[13] = system: Staphylococcus aureus 43300 (MRSA); test: microbe, parasite or virus in culture; assay type: cell-based; settings: 24 h, read-out: Minimum Inhibitory Concentration, MIC
[14] = system: Streptococcus pneumoniae 10351; test: microbe, parasite or virus in culture; assay type: cell-based; settings: 37° C., 24 h, read-out: Minimum Inhibitory Concentration, MIC
[15] = system: Bacillus cereus 2; test: microbe, parasite or virus in culture; assay type: cell-based; settings: 37° C., 24 h, read-out: Minimum Inhibitory Concentration, MIC
[16] = system: Staphylococcus aureus 29231; test: microbe, parasite or virus in culture; assay type: cell-based; settings: 37° C., 24 h, read-out: Minimum Inhibitory Concentration, MIC
[17] = system: Staphylococcus aureus 704 (MRSA); test: microbe, parasite or virus in culture; assay type: cell-based; settings: 24 h, read-out: Minimum Inhibitory Concentration, MIC
[18] = system: Streptococcus pneumoniae 6301; test: microbe, parasite or virus in culture; assay type: cell-based; settings: 37° C., 24 h, read-out: Minimum Inhibitory Concentration, MIC
[19] = system: Staphylococcus aureus 705 (MRSA); test: microbe, parasite or virus in culture; assay type: cell-based; settings: 24 h, read-out: Minimum Inhibitory Concentration, MIC
[20] = system: Streptococcus pneumoniae M2; test: microbe, parasite or virus in culture; assay type: cell-based; settings: 37° C., 24 h, read-out: Minimum Inhibitory Concentration, MIC
[21] = system: Enterococcus faecalis 1513 (VRE); test: microbe, parasite or virus in culture; assay type: cell-based; settings: 24 h, read-out: Minimum Inhibitory Concentration, MIC
[22] = system: Streptococcus pneumoniae 62; test: microbe, parasite or virus in culture; assay type: cell-based; settings: 37° C., 24 h, read-out: Minimum Inhibitory Concentration, MIC
[23] = system: Clostridium tetani; test: microbe, parasite or virus in culture; assay type: cell-based; settings: 24 h
[24] = system: Corynebacterium diphtheriae; test: microbe, parasite or virus in culture; assay type: cell-based; settings: 37° C., 24 h, read-out: Minimum Inhibitory Concentration, MIC
[25] = system: Bacillus subtilis 168; test: microbe, parasite or virus in culture; assay type: cell-based; settings: 37° C., 24 h, read-out: Minimum Inhibitory Concentration, MIC
[26] = system: Clostridium perfringens; test: microbe, parasite or virus in culture; assay type: cell-based; settings: 24 h, read-out: Minimum Inhibitory Concentration, MIC
[27] = system: Streptococcus bovis 10035; test: microbe, parasite or virus in culture; assay type: cell-based; settings: Streptococcus equinus, 37° C., 24 h, read-out: Minimum Inhibitory Concentration, MIC
[28] = system: Enterococcus faecalis 583 (VRE); test: microbe, parasite or virus in culture; assay type: cell-based; settings: 24 h, read-out: Minimum Inhibitory Concentration, MIC
[29] = system: Pyogenic Streptococcus; test: microbe, parasite or virus in culture; assay type: cell-based; settings: 37° C., 24 h, read-out: Minimum Inhibitory Concentration, MIC
[30] = system: green Streptococcus 1009; test: microbe, parasite or virus in culture; assay type: cell-based; settings: 37° C., 24 h, read-out: Minimum Inhibitory Concentration, MIC
[31] = system: MRSA 2152; test: Antibacterial studies in vivo, survival of mice infected with MRSA 2152; settings: dose mg/kg: ciprofloxacin 20, 3: 30, 7: 40, 21: 50, 33: 25, 70: 70
[32] = system: Enterococcus faecalis F2518 (VRE); test: microbe, parasite or virus in culture; assay type: cell-based; settings: 24 h, read-out: Minimum Inhibitory Concentration, MIC
[33] = system: Bacillus anthracis 1; test: microbe, parasite or virus in culture; assay type: cell-based; settings: Bacillus anthracis, 1, 24 h, read-out: Minimum Inhibitory Concentration, MIC
[34] = system: Gram-positive Bacteria; assay type: cell-based; settings: the majority of Bacillus cereus, Bacillus subtilis and Enterococcus faecalis
[35] = read-out: Minimum Inhibitory Concentration, MIC, Microorganism 29, Clostridium tetani, 37° C.
[36] = read-out: Minimum Inhibitory Concentration, MIC, Microorganism 30, Clostridium tetani (second line of that name), 37° C.

| SMILES | MIC [1] [µM] | MIC [2] [µM] | MIC [3] [µM] | MIC [4] [µM] | MIC [5] [µM] | MIC [6] [µM] | MIC [7] [µM] | MIC [8] [µM] | MIC [9] [µM] | MIC [10] [µM] | MIC [11] [µM] | MIC [12] [µM] | MIC [13] [µM] | MIC [14] [µM] | MIC [15] [µM] | MIC [16] [µM] | MIC [17] [µM] | MIC [18] [µM] | MIC [19] [µM] | MIC [20] [µM] | other results |
| --- | --- | --- | --- | --- | --- | --- | --- | --- | --- | --- | --- | --- | --- | --- | --- | --- | --- | --- | --- | --- | --- |
| Cc1nn2c(=O)c(C)c(-c3ccc(C#N)cc3)[nH]c2c1-c1ccc(C(F)(F)F)cc1 [Compound 33] | 5 (≈ 2.04 µg/mL) | 0.42 (≈ 0.172 µg/mL) | 0.31 (≈ 0.127 µg/mL) | 53.6 (≈ 21.9 µg/mL) | 126 (≈ 51.3 µg/mL) | 2.5 (≈ 1.02 µg/mL) | 1.25 (≈ 0.51 µg/mL) | 1.3 (≈ 0.531 µg/mL) | 0.63 (≈ 0.257 µg/mL) | 2.5 (≈ 1.02 µg/mL) | 0.56 (≈ 0.229 µg/mL) | 0.3 (≈ 0.123 µg/mL) | 0.55 (≈ 0.225 µg/mL) | 0.04 (≈ 0.0163 µg/mL) | 1.25 (≈ 0.51 µg/mL) | 0.63 (≈ 0.257 µg/mL) | 0.28 (≈ 0.114 µg/mL) | 2.5 (≈ 1.02 µg/mL) | 0.33 (≈ 0.135 µg/mL) | 1.25 (≈ 0.51 µg/mL) | MIC [21]: 5 µM (≈ 2.04 µg/mL); MIC [22]: 0.63 µM (≈ 0.257 µg/mL); MIC [23, 35]: 60.3 µM (≈ 24.6 µg/mL); MIC [23, 36]: 50.6 µM (≈ 20.7 µg/mL); MIC [24]: 80.3 µM (≈ 32.8 µg/mL); MIC [25]: 1.25 µM (≈ 0.51 µg/mL); MIC [26]: 31.2 µM (≈ 12.7 µg/mL); MIC [27]: 10.5 µM (≈ 4.29 µg/mL); MIC [28]: 2.5 µM (≈ 1.02 µg/mL); MIC [29]: 0.63 µM (≈ 0.257 µg/mL); MIC [30]: 0.3 µM (≈ 0.123 µg/mL); Survival rate (%) (life prolongation rate) ([31]; (survival days of test group − blank group)/blank group ×100%, MRSA 2152 mice, tail vein): 169.2%; Survival ([31]; mice inoculated intraperitoneally with MRSA 2152, test compound by tail vein, repeated after six hours, saline 1.3 days): 3.5 days; MIC [32]: 2.5 µM (≈ 1.02 µg/mL); MIC [33]: 35.6 µM (≈ 14.5 µg/mL) |
| CCc1nn2c(=O)c(C)c(-c3ccc(C(F)(F)F)cc3)[nH]c2c1-c1ccc(Cl)cc1Cl [Compound 23] | 140 (≈ 65.4 µg/mL) | 131 (≈ 60.9 µg/mL) | 110 (≈ 51.4 µg/mL) | 56.1 (≈ 26.2 µg/mL) | 122 (≈ 56.9 µg/mL) | 130 (≈ 60.8 µg/mL) | 200 (≈ 93.4 µg/mL) | 231 (≈ 108 µg/mL) | 80.5 (≈ 37.5 µg/mL) | 220 (≈ 103 µg/mL) | 200 (≈ 93.5 µg/mL) | 123 (≈ 57.4 µg/mL) | 120 (≈ 56.2 µg/mL) | 155 (≈ 72.4 µg/mL) | 110 (≈ 51.5 µg/mL) | 282 (≈ 131 µg/mL) | 180 (≈ 84 µg/mL) | 170 (≈ 79.4 µg/mL) | 150 (≈ 70 µg/mL) | 200 (≈ 93.4 µg/mL) | MIC [21]: 152 µM (≈ 71 µg/mL); MIC [22]: 160 µM (≈ 74.8 µg/mL); MIC [23, 35]: 80.2 µM (≈ 37.4 µg/mL); MIC [23, 36]: 50.2 µM (≈ 23.4 µg/mL); MIC [24]: 162 µM (≈ 75.3 µg/mL); MIC [25]: 101 µM (≈ 47.2 µg/mL); MIC [26]: 30.6 µM (≈ 14.3 µg/mL); MIC [27]: 153 µM (≈ 71.3 µg/mL); MIC [28]: 132 µM (≈ 61.3 µg/mL); MIC [29]: 231 µM (≈ 108 µg/mL); MIC [30]: 210 µM (≈ 98.1 µg/mL); MIC [32]: 215 µM (≈ 100 µg/mL); MIC [33]: 166 µM (≈ 77.6 µg/mL) |
| O=c1[nH]c(-c2ccc(C(F)(F)F)cc2)nc2cc(Cl)ccc12 [Compound 14] | 13.5 (≈ 4.38 µg/mL) | 125 (≈ 40.6 µg/mL) | 10.3 (≈ 3.35 µg/mL) | 121 (≈ 39.4 µg/mL) | 133 (≈ 43.2 µg/mL) | 21.5 (≈ 6.98 µg/mL) | 30.2 (≈ 9.79 µg/mL) | 250 (≈ 81.2 µg/mL) | 221 (≈ 71.8 µg/mL) | 15 (≈ 4.87 µg/mL) | 225 (≈ 73.1 µg/mL) | 170 (≈ 55.4 µg/mL) | 120 (≈ 39.1 µg/mL) | 104 (≈ 33.6 µg/mL) | 20.2 (≈ 6.57 µg/mL) | 6.31 (≈ 2.05 µg/mL) | 160 (≈ 52 µg/mL) | 141 (≈ 45.7 µg/mL) | 210 (≈ 68.3 µg/mL) | 120 (≈ 39 µg/mL) | inhibition of growth (conclusion from MICs) [34]: significantly inhibited the growth; MIC [21]: 130 µM (≈ 42.3 µg/mL); MIC [22]: 100 µM (≈ 32.5 µg/mL); MIC [23, 35]: 160 µM (≈ 52 µg/mL); MIC [23, 36]: 120 µM (≈ 39.1 µg/mL); MIC [24]: 135 µM (≈ 43.9 µg/mL); MIC [25]: 12.5 µM (≈ 4.06 µg/mL); MIC [26]: 125 µM (≈ 40.6 µg/mL); MIC [27]: 100 µM (≈ 32.6 µg/mL); MIC [28]: 120 µM (≈ 39.1 µg/mL); MIC [29]: 132 µM (≈ 43 µg/mL); MIC [30]: 126 µM (≈ 40.7 µg/mL); MIC [32]: 122 µM (≈ 39.7 µg/mL); MIC [33]: 122 µM (≈ 39.8 µg/mL) |
